Measured values reported in PubChem BioAssay AID2060484 (Molecular Pharmacology Branch, DTP, NCI, 2025).

System: SUM149PT spheroids with HUVEC/MSC, viability
Assay: Anticancer human tumor SUM149PT cell line growth inhibition [GQUAD];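 also: spheroids exposed to drugs for seven days before readout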;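 as to viability, T/C: percent viability relative to DMSO vehicle control taken as 100%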
Conditions: for IC50: curve of first compound; for viability, T/C: stronger effect = lower value
Procedure, shortened: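 Multi-cell-type spheroids of tumor cells with HUVEC and mesenchymal stem cells, treated with drug combinations. Concentrations descend in half-log steps from near clinical Cmax, or from 10 microM where Cmax is unknown; viability read-out.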

[1] = second compound 0.0316 µM, first compound 0.0316 µM
[2] = second compound 0.0316 µM, first compound 0.316 µM
[3] = second compound 0.1 µM, first compound 0.0316 µM
[4] = second compound 0.1 µM, first compound 0.316 µM
[5] = second compound 0.316 µM, first compound 0.0316 µM
[6] = second compound 0.316 µM, first compound 0.316 µM
[7] = second compound 1 µM, first compound 0.0316 µM
[8] = second compound 1 µM, first compound 0.316 µM
[9] = second compound 3.16 µM, first compound 0.0316 µM
[10] = second compound 3.16 µM, first compound 0.316 µM
[11] = second compound 10 µM, first compound 0.0316 µM
[12] = second compound 10 µM, first compound 0.316 µM

**Q.** For `CC(=O)O[C@H]1C(=O)[C@@]2(C)[C@H]([C@H](OC(=O)c3ccccc3)[C@]3(O)C[C@H](OC(=O)[C@H](O)[C@@H](NC(=O)c4ccccc4)c4ccccc4)C(C)=C1C3(C)C)[C@]1(OC(C)=O)CO[C@@H]1C[C@@H]2O` + Cc1[nH]c2ccc(F)cc2c1-c1nc2c3cccnc3c3ncccc3c2[nH]1, which IC50 (second compound 0.0316 µM) is on record?
**A.** Its IC50 is less than 31.6 nM.

**Q.** And the IC50 (second compound 0.1 µM)?
**A.** Its IC50 is less than 31.6 nM.

**Q.** And the IC50 (second compound 0.316 µM)?
**A.** Its IC50 is less than 31.6 nM.

**Q.** And the IC50 (second compound 1 µM)?
**A.** Its IC50 is less than 31.6 nM.

**Q.** What about the IC50 (second compound 3.16 µM) of the same molecule?
**A.** Its IC50 is less than 31.6 nM.

**Q.** And the IC50 (second compound 10 µM)?
**A.** The IC50 was less than 31.6 nM.

**Q.** And the viability, T/C [1]?
**A.** Its viability, T/C is 31.7%.

**Q.** What about the viability, T/C (second compound 0.0316 µM, first compound 0.1 µM) of the same molecule?
**A.** The viability, T/C was 25.7%.

**Q.** And the viability, T/C [2]?
**A.** The viability, T/C was 21.3%.

**Q.** What about the viability, T/C (second compound 0.0316 µM, first compound 1 µM) of the same molecule?
**A.** Its viability, T/C is 19.2%.

**Q.** And the viability, T/C (second compound 0.0316 µM, first compound 3.16 µM)?
**A.** Its viability, T/C is 19%.

**Q.** And the viability, T/C (second compound 0.0316 µM, first compound 10 µM)?
**A.** Its viability, T/C is 23.1%.

**Q.** And the viability, T/C [3]?
**A.** The viability, T/C was 34.9%.

**Q.** And the viability, T/C (second compound 0.1 µM, first compound 0.1 µM)?
**A.** The viability, T/C was 24.9%.

**Q.** And the viability, T/C [4]?
**A.** The viability, T/C was 22.7%.

**Q.** And the viability, T/C (second compound 0.1 µM, first compound 1 µM)?
**A.** Its viability, T/C is 19.7%.

**Q.** And the viability, T/C (second compound 0.1 µM, first compound 3.16 µM)?
**A.** The viability, T/C was 19.3%.

**Q.** And the viability, T/C (second compound 0.1 µM, first compound 10 µM)?
**A.** The viability, T/C was 25.8%.

**Q.** What about the viability, T/C [5] of the same molecule?
**A.** The viability, T/C was 32.2%.

**Q.** What about the viability, T/C (second compound 0.316 µM, first compound 0.1 µM) of the same molecule?
**A.** Its viability, T/C is 25.7%.

**Q.** What about the viability, T/C [6] of the same molecule?
**A.** Its viability, T/C is 24.2%.

**Q.** And the viability, T/C (second compound 0.316 µM, first compound 1 µM)?
**A.** The viability, T/C was 18.9%.

**Q.** What about the viability, T/C (second compound 0.316 µM, first compound 3.16 µM) of the same molecule?
**A.** The viability, T/C was 20.8%.

**Q.** What about the viability, T/C (second compound 0.316 µM, first compound 10 µM) of the same molecule?
**A.** The viability, T/C was 26.5%.

**Q.** And the viability, T/C [7]?
**A.** The viability, T/C was 30.2%.

**Q.** And the viability, T/C (second compound 1 µM, first compound 0.1 µM)?
**A.** The viability, T/C was 27.2%.

**Q.** What about the viability, T/C [8] of the same molecule?
**A.** The viability, T/C was 23.1%.

**Q.** And the viability, T/C (second compound 1 µM, first compound 1 µM)?
**A.** The viability, T/C was 17.3%.

**Q.** What about the viability, T/C (second compound 1 µM, first compound 3.16 µM) of the same molecule?
**A.** The viability, T/C was 21.5%.

**Q.** What about the viability, T/C (second compound 1 µM, first compound 10 µM) of the same molecule?
**A.** Its viability, T/C is 26.6%.

**Q.** And the viability, T/C [9]?
**A.** Its viability, T/C is 29.8%.

**Q.** What about the viability, T/C (second compound 3.16 µM, first compound 0.1 µM) of the same molecule?
**A.** Its viability, T/C is 28.6%.

**Q.** And the viability, T/C [10]?
**A.** Its viability, T/C is 21.5%.

**Q.** What about the viability, T/C (second compound 3.16 µM, first compound 1 µM) of the same molecule?
**A.** Its viability, T/C is 18%.

**Q.** What about the viability, T/C (second compound 3.16 µM, first compound 3.16 µM) of the same molecule?
**A.** Its viability, T/C is 20.5%.

**Q.** And the viability, T/C (second compound 3.16 µM, first compound 10 µM)?
**A.** The viability, T/C was 22.9%.

**Q.** What about the viability, T/C [11] of the same molecule?
**A.** The viability, T/C was 28.5%.

**Q.** What about the viability, T/C (second compound 10 µM, first compound 0.1 µM) of the same molecule?
**A.** Its viability, T/C is 24.9%.

**Q.** What about the viability, T/C [12] of the same molecule?
**A.** Its viability, T/C is 20.2%.

**Q.** What about the viability, T/C (second compound 10 µM, first compound 1 µM) of the same molecule?
**A.** The viability, T/C was 20.7%.

**Q.** And the viability, T/C (second compound 10 µM, first compound 3.16 µM)?
**A.** The viability, T/C was 22.3%.

**Q.** And the viability, T/C (second compound 10 µM, first compound 10 µM)?
**A.** The viability, T/C was 23.1%.

**Q.** Which IC50 (second compound 0.0316 µM) does the source give for `CC[C@@]1(O)C(=O)OCc2c1cc1n(c2=O)Cc2cc3c(CN(C)C)c(O)ccc3nc2-1` + Cc1[nH]c2ccc(F)cc2c1-c1nc2c3cccnc3c3ncccc3c2[nH]1 here?
**A.** The IC50 was 85.2 nM.

**Q.** And the IC50 (second compound 0.1 µM)?
**A.** The IC50 was 84.8 nM.

**Q.** What about the IC50 (second compound 0.316 µM) of the same molecule?
**A.** Its IC50 is 80.2 nM.

**Q.** And the IC50 (second compound 1 µM)?
**A.** Its IC50 is 78.3 nM.

**Q.** And the IC50 (second compound 3.16 µM)?
**A.** Its IC50 is 85.7 nM.

**Q.** What about the IC50 (second compound 10 µM) of the same molecule?
**A.** Its IC50 is 77.2 nM.

**Q.** And the viability, T/C (second compound 0.0316 µM, first compound 0.000999 µM)?
**A.** Its viability, T/C is 103%.

**Q.** And the viability, T/C (second compound 0.0316 µM, first compound 0.00316 µM)?
**A.** Its viability, T/C is 89.6%.

**Q.** What about the viability, T/C (second compound 0.0316 µM, first compound 0.00999 µM) of the same molecule?
**A.** The viability, T/C was 107%.

**Q.** And the viability, T/C [1]?
**A.** The viability, T/C was 85.2%.

**Q.** And the viability, T/C (second compound 0.0316 µM, first compound 0.0999 µM)?
**A.** Its viability, T/C is 43.1%.

**Q.** And the viability, T/C [2]?
**A.** Its viability, T/C is 45.6%.

**Q.** What about the viability, T/C (second compound 0.1 µM, first compound 0.000999 µM) of the same molecule?
**A.** Its viability, T/C is 110%.

**Q.** And the viability, T/C (second compound 0.1 µM, first compound 0.00316 µM)?
**A.** The viability, T/C was 105%.

**Q.** And the viability, T/C (second compound 0.1 µM, first compound 0.00999 µM)?
**A.** Its viability, T/C is 104%.

**Q.** And the viability, T/C [3]?
**A.** The viability, T/C was 87.3%.

**Q.** What about the viability, T/C (second compound 0.1 µM, first compound 0.0999 µM) of the same molecule?
**A.** Its viability, T/C is 42.5%.

**Q.** What about the viability, T/C [4] of the same molecule?
**A.** Its viability, T/C is 45.1%.

**Q.** What about the viability, T/C (second compound 0.316 µM, first compound 0.000999 µM) of the same molecule?
**A.** The viability, T/C was 97.1%.

**Q.** And the viability, T/C (second compound 0.316 µM, first compound 0.00316 µM)?
**A.** Its viability, T/C is 99.7%.

**Q.** And the viability, T/C (second compound 0.316 µM, first compound 0.00999 µM)?
**A.** The viability, T/C was 106%.

**Q.** And the viability, T/C [5]?
**A.** The viability, T/C was 89%.

**Q.** What about the viability, T/C (second compound 0.316 µM, first compound 0.0999 µM) of the same molecule?
**A.** The viability, T/C was 40.2%.

**Q.** And the viability, T/C [6]?
**A.** Its viability, T/C is 41.5%.

**Q.** What about the viability, T/C (second compound 1 µM, first compound 0.000999 µM) of the same molecule?
**A.** The viability, T/C was 114%.

**Q.** And the viability, T/C (second compound 1 µM, first compound 0.00316 µM)?
**A.** Its viability, T/C is 99.8%.

**Q.** And the viability, T/C (second compound 1 µM, first compound 0.00999 µM)?
**A.** Its viability, T/C is 105%.

**Q.** What about the viability, T/C [7] of the same molecule?
**A.** The viability, T/C was 80.2%.

**Q.** What about the viability, T/C (second compound 1 µM, first compound 0.0999 µM) of the same molecule?
**A.** The viability, T/C was 41.5%.

**Q.** And the viability, T/C [8]?
**A.** The viability, T/C was 40.2%.

**Q.** And the viability, T/C (second compound 3.16 µM, first compound 0.000999 µM)?
**A.** The viability, T/C was 82.7%.

**Q.** And the viability, T/C (second compound 3.16 µM, first compound 0.00316 µM)?
**A.** Its viability, T/C is 97.8%.

**Q.** What about the viability, T/C (second compound 3.16 µM, first compound 0.00999 µM) of the same molecule?
**A.** The viability, T/C was 99%.

**Q.** What about the viability, T/C [9] of the same molecule?
**A.** Its viability, T/C is 91.7%.

**Q.** And the viability, T/C (second compound 3.16 µM, first compound 0.0999 µM)?
**A.** The viability, T/C was 43.1%.

**Q.** What about the viability, T/C [10] of the same molecule?
**A.** The viability, T/C was 44.1%.

**Q.** And the viability, T/C (second compound 10 µM, first compound 0.000999 µM)?
**A.** The viability, T/C was 96.1%.

**Q.** What about the viability, T/C (second compound 10 µM, first compound 0.00316 µM) of the same molecule?
**A.** Its viability, T/C is 86.8%.

**Q.** What about the viability, T/C (second compound 10 µM, first compound 0.00999 µM) of the same molecule?
**A.** Its viability, T/C is 108%.

**Q.** And the viability, T/C [11]?
**A.** The viability, T/C was 85.1%.

**Q.** And the viability, T/C (second compound 10 µM, first compound 0.0999 µM)?
**A.** The viability, T/C was 40.5%.

**Q.** And the viability, T/C [12]?
**A.** The viability, T/C was 38.7%.
